Values of other authors as cited in patent publication US11058694B2, “Nutritional supplements for growth enhancement in pre-pubertal adolescents” (Nutritional Growth Solutions LTD, priority 2014, dated 2021).

Tests used:
[1] = versus placebo, daily syrup for six months
[2] = 33 randomized controlled intervention trials
[3] = 6-12 months follow-up, normal serum zinc levels

[Fe] [iron]
increase in hemoglobin concentrations, effect size (iron interventions, 95% CI: 0.46, 2.51): 1.49 | effect of supplementation intervention on child growth (iron supplementation): no significant effect

[Zn] [zinc]
mean height for age Z-score [1]: decreased to a greater extent than placebo | responses in height and in weight increments [2]: significant positive responses | height or weight-SDS [3]: did not significantly changed

vitamin A
effect of supplementation interventions on growth (vitamin A supplementation): no significant effect on growth
